{
  "source": "patent US7772230B2",
  "about": "“Chroman compound, processes for its preparation, and its pharmaceutical use” (China Pharmaceutical University, priority 2006, dated 2010)",
  "key": {"[1]": {"target": "T1, slowly delayed rectifier potassium channel current (IKs) (Cavia porcellus, UniProt O70344)", "T1 construct": "the Guinea pig myocardial cells are separated with enzymolysis; endogenous in cells; host or cells: freshly isolated guinea pig ventricular myocytes", "T1 sequence (O70344 1-671)": "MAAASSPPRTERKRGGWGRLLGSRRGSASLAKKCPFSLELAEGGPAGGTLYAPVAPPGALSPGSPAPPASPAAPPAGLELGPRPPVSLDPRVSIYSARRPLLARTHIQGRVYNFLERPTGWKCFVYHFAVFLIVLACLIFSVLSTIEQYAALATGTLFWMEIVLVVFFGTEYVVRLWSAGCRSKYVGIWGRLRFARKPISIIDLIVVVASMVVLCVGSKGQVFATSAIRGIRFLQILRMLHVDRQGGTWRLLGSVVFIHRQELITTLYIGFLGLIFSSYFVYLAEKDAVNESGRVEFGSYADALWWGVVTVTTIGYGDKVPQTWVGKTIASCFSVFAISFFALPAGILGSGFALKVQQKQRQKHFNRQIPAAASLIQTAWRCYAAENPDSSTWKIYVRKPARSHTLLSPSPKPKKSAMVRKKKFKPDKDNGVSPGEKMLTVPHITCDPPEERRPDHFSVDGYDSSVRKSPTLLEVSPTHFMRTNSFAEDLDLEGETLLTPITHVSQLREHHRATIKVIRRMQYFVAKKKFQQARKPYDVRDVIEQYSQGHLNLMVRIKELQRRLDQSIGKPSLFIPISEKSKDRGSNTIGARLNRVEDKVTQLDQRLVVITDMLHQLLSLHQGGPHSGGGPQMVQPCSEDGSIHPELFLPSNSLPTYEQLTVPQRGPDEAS", "T1 sequence (P41686 1-245 partner)": "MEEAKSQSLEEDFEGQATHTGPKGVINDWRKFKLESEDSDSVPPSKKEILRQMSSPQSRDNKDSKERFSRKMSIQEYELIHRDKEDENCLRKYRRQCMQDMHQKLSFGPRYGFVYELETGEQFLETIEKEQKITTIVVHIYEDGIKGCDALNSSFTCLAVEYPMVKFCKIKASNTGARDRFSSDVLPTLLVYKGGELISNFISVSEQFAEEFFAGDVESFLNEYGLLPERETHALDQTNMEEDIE", "assay": "whole cell patch clamp on isolated Guinea pig myocardial cells, IKs", "type": "cell-based", "settings": "Guinea pig ventricular myocytes, current recorded 10 min after administration, 25-30° C.", "experimental": "(§1) Experimental title: using vitro pachynsis myocardial cells of Guinea pig, the activity is determined by the whole cell membrane Patch clamp technology.\n(§2) experimental mechanism: the Guinea pig myocardial cells are separated with enzymolysis, and the rapid activation component and the slowly activation component of the delayed commutating current in the cardiac muscle cells are recorded by whole cell membrane Patch clamp. Each compound is added to the perfuse liquid for measuring current after dissolved at least 10 min. The collected data is analyzed in pulse-fit, the IC50 value for IKr and IKs of each compound is calculated.\n(§3) animals: Guinea pigs, male, weight 300-400 g.\n(§4) solution: calcium free Tyrode's solution\n(§5) pole inner solution (mmol/L): KCl 140, MgCl2 1.0, K2-ATP 4.0, EGTA 10, HEPES 5.0, pH=7.2\n(§6) Experimental apparatus: Patch clamp magnifier (EPC-10, Germany), inverted microscope (TE-2000U, Nikon, Japan), microelectrode puller (PIP5, Germany), micro-manipulator (PCS-5000, Burleigh, USA).\n(§7) Then, the hearts are taken off, their ventricle are cut to smash and incubated in fresh enzyme solution at 37° C., the solution is gently stirred for 5-10 min, pouring off the supernatant fluid, diluted with Tyrode's solution containing CaCl2 1 mmol/L, that is for the first cell stored liquor; with the same operation to obtain the second and the third cell storages. […] The cells are laid for 2 h before use.\n(§8) the cell liquor is put into the cell pool, after the cells adhering to the wall, they are perfused with outer liquor of the cells at the rate of 2 ml/min, cells that having calcium resistance and clear transverse striations are to be selected, the poles are moved to the cell surface by tridimensional manipulator. The high resistance block are formed between the pole top and the cell surface by under pressure, and more over using reduced pressure to broking cell membrane, the pole inner liquor can be connected to the cell inner liquor so as to form the whole cell state. After the compensation to the capacitance and series impedance compensation the voltage tongs are recorded. The signal is led by Ag/AgCl pole and magnified by the Patch clamp magnifier, the computer dispenses presetting stimulate pulse by procedure and add to cells, and the electrical signal generated from cells is translated by transducer, and stored in computer. All of the stimulate signal control, electric current, data sampling and analyses are carried out by pulse V8.60. Azimilide is used as positive drugs in the research. Each test compound is dissolved in anhydrous ethanol, diluted to the same concentration by water, and added to outer cell liquor, the top concentration of ethanol is 0.1%.\n(§9) Stimulate parameter: the record of IKr and IKS: the back value of the either current is recorded. Using extra-cellular fluid containing 0.1 mmol/L CdCl2 for perfusion, sustaining the voltage at −50 mV, depolarized to 60 mV, keeping for 500 ms, and sustaining the voltage at −50 mV, keeping for 1000 ms, recording IKr; and then binding the voltage at −50 mV for 1000 ms, recording IKs."}, "[2]": {"target": "T2, rapidly delayed rectifier potassium channel current (IKr) (Cavia porcellus, UniProt O08703)", "T2 construct": "the Guinea pig myocardial cells are separated with enzymolysis; endogenous in cells; host or cells: freshly isolated guinea pig ventricular myocytes", "T2 sequence (O08703 1-1294)": "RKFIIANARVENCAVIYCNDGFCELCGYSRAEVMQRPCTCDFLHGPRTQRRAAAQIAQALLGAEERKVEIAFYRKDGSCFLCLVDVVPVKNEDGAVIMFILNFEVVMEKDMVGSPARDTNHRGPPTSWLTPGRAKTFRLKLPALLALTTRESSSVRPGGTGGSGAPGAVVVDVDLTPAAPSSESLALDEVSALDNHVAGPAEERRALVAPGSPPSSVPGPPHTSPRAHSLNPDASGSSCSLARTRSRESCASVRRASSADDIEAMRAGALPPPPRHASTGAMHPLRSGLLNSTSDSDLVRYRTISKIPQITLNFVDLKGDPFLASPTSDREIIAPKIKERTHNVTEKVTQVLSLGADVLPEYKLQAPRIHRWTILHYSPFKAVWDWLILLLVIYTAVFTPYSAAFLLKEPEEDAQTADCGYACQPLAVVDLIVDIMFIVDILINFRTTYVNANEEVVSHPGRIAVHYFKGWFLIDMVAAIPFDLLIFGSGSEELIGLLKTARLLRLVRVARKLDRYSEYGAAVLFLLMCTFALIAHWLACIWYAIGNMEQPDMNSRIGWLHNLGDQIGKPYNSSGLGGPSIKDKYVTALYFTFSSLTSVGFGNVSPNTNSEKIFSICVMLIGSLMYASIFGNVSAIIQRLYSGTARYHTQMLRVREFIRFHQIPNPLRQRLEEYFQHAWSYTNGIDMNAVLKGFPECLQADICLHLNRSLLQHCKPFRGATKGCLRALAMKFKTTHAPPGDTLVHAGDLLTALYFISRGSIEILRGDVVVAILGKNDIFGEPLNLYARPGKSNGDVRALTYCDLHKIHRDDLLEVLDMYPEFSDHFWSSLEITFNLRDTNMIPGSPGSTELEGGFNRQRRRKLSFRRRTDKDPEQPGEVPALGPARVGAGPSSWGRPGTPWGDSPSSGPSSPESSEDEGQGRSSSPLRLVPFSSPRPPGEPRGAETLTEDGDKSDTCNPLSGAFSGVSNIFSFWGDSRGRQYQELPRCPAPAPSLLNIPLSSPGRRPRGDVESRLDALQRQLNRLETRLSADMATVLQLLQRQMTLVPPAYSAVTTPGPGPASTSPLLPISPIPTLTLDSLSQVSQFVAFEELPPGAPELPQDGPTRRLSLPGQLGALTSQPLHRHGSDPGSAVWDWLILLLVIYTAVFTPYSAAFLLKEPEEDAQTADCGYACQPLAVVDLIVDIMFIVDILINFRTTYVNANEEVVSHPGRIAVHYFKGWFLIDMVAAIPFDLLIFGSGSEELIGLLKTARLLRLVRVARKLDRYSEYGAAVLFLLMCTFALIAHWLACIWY", "assay": "whole cell patch clamp on isolated Guinea pig myocardial cells, IKr", "type": "cell-based", "settings": "Guinea pig ventricular myocytes, current recorded 10 min after administration, 25-30° C.", "experimental": "as §1, §2, §3, §4, §5, §6, §7, §8, §9"}},
  "data": [
    {"smiles": "CN1CCN(CCCCN2C(=O)CN(/N=C3\\CCOc4ccc(C(N)=O)cc43)C2=O)CC1.O=C(O)/C=C/C(=O)O", "note": "[Ia example 4, 1-[4-(2,3-dihydro-6-carbamoyl)benzopyran]imino-3-[4-(methyl-1-piperazine)butyl]-2,4-imidazole dione difumarate]", "values": [
      {"measurement": "melting point", "value": "192 to 194", "unit": "°C"},
      {"measurement": "IC50", "setting": "[1]", "value": 330, "unit": "nM"},
      {"measurement": "IC50", "setting": "[2]", "value": 450, "unit": "nM"}
    ]},
    {"smiles": "CCCCOc1ccc2c(c1)/C(=N/N1CC(=O)N(CCCCN3CCN(C)CC3)C1=O)CCO2.O=C(O)/C=C/C(=O)O", "note": "[Ib example 4, 1-[4-(2,3-dihydro-6-butoxy)benzopyran]imino-3-[4-(methyl-1-piperazine)butyl]-2,4-imidazole dione difumarate]", "values": [
      {"measurement": "melting point", "value": "208 to 210", "unit": "°C"},
      {"measurement": "IC50", "setting": "[1]", "value": 22, "unit": "nM"},
      {"measurement": "IC50", "setting": "[2]", "value": 180, "unit": "nM"}
    ]},
    {"smiles": "CN1CCN(CCCCN2C(=O)CN(/N=C3\\CCOc4ccc(Cl)cc43)C2=O)CC1.O=C(O)/C=C/C(=O)O", "note": "[Ia example 2, 1-[4-(2,3-dihydro-6-chloro)benzopyran]imino-3-[4-(methyl-1-piperazine)butyl]-2,4-imidazole dione difumarate]", "values": [
      {"measurement": "melting point", "value": "230 to 232", "unit": "°C"},
      {"measurement": "IC50", "setting": "[1]", "value": 73, "unit": "nM"},
      {"measurement": "IC50", "setting": "[2]", "value": 4700, "unit": "nM"}
    ]}
  ]
}
